Literature values in patent publication US20190000850A1, “COMBINATION CANCER THERAPY” (The Regents of the University of California, priority 2015, published 2019).

Legend:
Chk1 = molecular target: T1, Chk1 (Homo sapiens, UniProt O14757); conditions: read-out: IC50 against primary target (Chk1); cited from earlier work
T1 sequence (O14757 1-476): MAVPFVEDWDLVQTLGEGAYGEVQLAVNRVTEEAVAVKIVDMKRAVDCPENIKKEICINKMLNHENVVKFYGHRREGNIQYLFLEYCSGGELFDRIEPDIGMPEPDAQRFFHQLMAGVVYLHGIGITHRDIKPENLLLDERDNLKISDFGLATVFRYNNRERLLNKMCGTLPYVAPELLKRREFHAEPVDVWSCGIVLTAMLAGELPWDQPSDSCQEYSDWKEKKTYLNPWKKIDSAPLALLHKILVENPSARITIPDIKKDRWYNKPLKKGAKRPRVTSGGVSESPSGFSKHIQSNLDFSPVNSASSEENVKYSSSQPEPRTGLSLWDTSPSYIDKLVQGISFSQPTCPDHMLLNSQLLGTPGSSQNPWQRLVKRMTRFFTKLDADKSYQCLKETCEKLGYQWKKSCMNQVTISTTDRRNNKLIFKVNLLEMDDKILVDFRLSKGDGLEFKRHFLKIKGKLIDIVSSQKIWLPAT

cdc2 = cdc2 (Homo sapiens, UniProt P06493); conditions: cited from earlier work
PKC = conditions: cited from earlier work
Chk2 = Chk2 (Homo sapiens, UniProt O96017); conditions: read-out: IC50 against Chk2; cited from earlier work
Sequence of Chk2 (O96017 whole entry, species assumed): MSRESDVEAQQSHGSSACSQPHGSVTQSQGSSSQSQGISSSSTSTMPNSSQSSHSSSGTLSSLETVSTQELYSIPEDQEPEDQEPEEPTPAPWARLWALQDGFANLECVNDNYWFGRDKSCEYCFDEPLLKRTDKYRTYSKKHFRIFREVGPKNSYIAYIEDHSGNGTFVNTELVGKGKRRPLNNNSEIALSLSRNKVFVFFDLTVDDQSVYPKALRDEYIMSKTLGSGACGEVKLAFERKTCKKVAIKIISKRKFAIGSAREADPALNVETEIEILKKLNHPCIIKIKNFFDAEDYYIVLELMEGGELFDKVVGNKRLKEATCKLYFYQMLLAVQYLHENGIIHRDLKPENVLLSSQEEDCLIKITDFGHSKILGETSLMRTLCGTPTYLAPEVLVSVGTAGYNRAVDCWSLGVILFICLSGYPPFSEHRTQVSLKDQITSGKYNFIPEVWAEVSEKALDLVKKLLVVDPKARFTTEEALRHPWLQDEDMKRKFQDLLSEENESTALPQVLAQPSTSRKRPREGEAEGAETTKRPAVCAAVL

Sequence of cdc2 (P06493 whole entry, species assumed): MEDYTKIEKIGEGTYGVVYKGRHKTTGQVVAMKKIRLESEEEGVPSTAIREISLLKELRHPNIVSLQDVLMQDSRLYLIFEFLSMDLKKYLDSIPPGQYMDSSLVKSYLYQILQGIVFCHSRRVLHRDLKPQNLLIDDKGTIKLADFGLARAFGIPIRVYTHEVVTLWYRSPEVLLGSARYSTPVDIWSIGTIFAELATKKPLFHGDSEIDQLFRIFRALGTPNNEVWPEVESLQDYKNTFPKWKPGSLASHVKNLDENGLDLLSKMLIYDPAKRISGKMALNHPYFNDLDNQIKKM
Sequence of cdc2 (P14635 whole entry partner, species assumed): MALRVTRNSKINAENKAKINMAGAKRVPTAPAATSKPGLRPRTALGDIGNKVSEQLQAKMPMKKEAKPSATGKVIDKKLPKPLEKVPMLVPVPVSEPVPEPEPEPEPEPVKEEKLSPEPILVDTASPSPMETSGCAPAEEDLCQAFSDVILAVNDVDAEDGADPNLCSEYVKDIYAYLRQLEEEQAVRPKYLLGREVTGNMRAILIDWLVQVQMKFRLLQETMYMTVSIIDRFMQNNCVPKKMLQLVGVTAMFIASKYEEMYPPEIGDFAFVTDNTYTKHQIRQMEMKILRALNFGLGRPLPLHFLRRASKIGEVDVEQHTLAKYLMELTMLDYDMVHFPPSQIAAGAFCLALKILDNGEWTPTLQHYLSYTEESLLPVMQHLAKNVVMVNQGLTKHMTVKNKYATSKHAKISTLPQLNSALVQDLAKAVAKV

O=C1NC(=O)c2c1c1c3ccccc3n3c1c1c2c2ccccc2n1C1CCC3O1 [SB-218078]
IC50 (Chk1): 15 nM | IC50 (cdc2): 250 nM | IC50 (PKC): 1000 nM

CN(C)CC(C)(C)COc1ccc2[nH]c(-c3cc(NC(=O)c4cnn(Cc5ccccc5)c4)c[nH]c3=O)cc2c1 [V158411]
IC50 (Chk1): 3.5 nM | IC50 (Chk2): 2.5 nM
